Assay results as given in PMC3222680 (PLoS ONE, 2011).

Experiments:
Type in all cases: cell-based
[1] = molecular target: T1, αK24′A α-βWT GlyR (Homo sapiens, UniProt P23415+P48167, K304A)
T1 construct: The α R218-Q219 and β R242-Q243 are also the joining sites for chimeras constructed between the ECD and TMD; expressed in transfected cells; host or cells: HEK293 (ATCC)
Protocol: (§1) The human GlyR α1 and β subunit cDNAs were subcloned into the pcDNA3.1zeo+ (Invitrogen) or pGEMHE [44] plasmid vectors for expression in HEK293 cells or Xenopus oocytes, respectively. Site-directed mutagenesis and chimera construction were performed using the QuickChange (Stratagene, La Jolla, CA, USA) mutagenesis and multiple-template-based sequential PCR protocols, respectively.
(§2) The effects of the hyperekplexia-mimicking mutations, K24′A, V25′A and Y27′A, were examined on GlyRs expressed in HEK293 cells (ATCC). Details of the HEK293 cell culture, GlyR expression and electrophysiological recording of the HEK293 cells are described elsewhere. Briefly, HEK293 cells were maintained in DMEM supplemented with 10% fetal bovine serum. Cells were transfected using a calcium phosphate precipitation protocol. When co-transfecting the α1 together with the β or any other chimera subunits, their respective cDNAs were combined in a ratio of 1∶10. In addition, the pEGFP-N1 (Clontech) was co-transfected to facilitate identifying the transfected cells. […] Cells were treated with external Ringer's solution and internal CsCl solution [30]. Cells were voltage-clamped at −40 mV. When the heteromeric GlyRs were expressed, the picrotoxin sensitivity was tested to confirm that the majority of receptors are heteromers, [30].
(§3) Results are expressed as mean±standard error of the mean of three or more independent experiments. […] Statistical significance was determined using the Student's t-test.

[2] = molecular target: T2, αK24′A βWT GlyR (Homo sapiens, UniProt P23415+P48167, K304A)
T2 construct: expressed in transfected cells; host or cells: HEK293 (ATCC)
Protocol: as §1, §2, §3

[3] = molecular target: T3, αR19′A βA19′R GlyR (Homo sapiens, UniProt P23415+P48167, A317R/R299A)
T3 construct: expressed in transfected cells; host or cells: HEK293 (ATCC)
Protocol: as §1, §2, §3

[4] = molecular target: T4, αR19′A βWT GlyR (Homo sapiens, UniProt P23415+P48167, R299A)
T4 construct: expressed in transfected cells; host or cells: HEK293 (ATCC)
Protocol: as §1, §2, §3

[5] = molecular target: T5, αV25′A α-βWT GlyR (Homo sapiens, UniProt P23415+P48167, V305A)
T5 construct: The α R218-Q219 and β R242-Q243 are also the joining sites for chimeras constructed between the ECD and TMD; expressed in transfected cells; host or cells: HEK293 (ATCC)
Protocol: as §1, §2, §3

[6] = molecular target: T6, αV25′A αB-βWT GlyR (Homo sapiens, UniProt P23415+P48167, A80Q/V305A)
T6 construct: expressed in transfected cells; host or cells: HEK293 (ATCC)
Protocol: as §1, §2, §3

[7] = molecular target: T7, αV25′A αT-βWT GlyR (Homo sapiens, UniProt P23415+P48167, Q95A/V305A)
T7 construct: expressed in transfected cells; host or cells: HEK293 (ATCC)
Protocol: as §1, §2, §3

[8] = molecular target: T8, αV25′A βWT GlyR (Homo sapiens, UniProt P23415+P48167, V305A)
T8 construct: expressed in transfected cells; host or cells: HEK293 (ATCC)
Protocol: as §1, §2, §3

[9] = molecular target: T9, αWT α-βK24′A GlyR (Homo sapiens, UniProt P23415+P48167, A277S/G282P/I253M/I257A/I264V/I268L/K322A/L252M/M248V/M255V/M274P/P278A/Q254G/S259T/Y250F)
T9 construct: The α R218-Q219 and β R242-Q243 are also the joining sites for chimeras constructed between the ECD and TMD; expressed in transfected cells; host or cells: HEK293 (ATCC)
Protocol: as §1, §2, §3

[10] = molecular target: T10, αWT α-βV25′A GlyR (Homo sapiens, UniProt P23415+P48167, A277S/G282P/I253M/I257A/I264V/I268L/L252M/M248V/M255V/M274P/P278A/Q254G/S259T/V323A/Y250F)
T10 construct: The α R218-Q219 and β R242-Q243 are also the joining sites for chimeras constructed between the ECD and TMD; expressed in transfected cells; host or cells: HEK293 (ATCC)
Protocol: as §1, §2, §3

[11] = molecular target: T11, αWT αB-βWT GlyR (Homo sapiens, UniProt P23415+P48167, A165S/A240V/A277S/A316I/A325S/A80Q/DEL290-297/E245R/G282P/H243T/I181K/I238V/I253M/I257A/I264V/I268L/I311L/I313V/INS301ECTTLAAE/K171T/L252M/L327V/M168L/M248V/M255V/M274P/M315L/N172L/P278A/Q254G/R241I/R299L/S259T/S324A/T179R/T286F/T287S/V177T/V317A/V322G/Y250F)
T11 construct: expressed in transfected cells; host or cells: HEK293 (ATCC)
Protocol: as §1, §2, §3

[12] = molecular target: T12, αWT αT-βV25′A GlyR (Homo sapiens, UniProt P23415+P48167, I259R/K198I/L185M/L189N/Q95A/R196T/R263E/S182A/T188K/T194V/T261H/V256I/V258A/V323A)
T12 construct: expressed in transfected cells; host or cells: HEK293 (ATCC)
Protocol: as §1, §2, §3

[13] = molecular target: T13, αWT αT-βWT GlyR (Homo sapiens, UniProt P23415+P48167, I259R/K198I/L185M/L189N/Q95A/R196T/R263E/S182A/T188K/T194V/T261H/V256I/V258A)
T13 construct: expressed in transfected cells; host or cells: HEK293 (ATCC)
Protocol: as §1, §2, §3

[14] = molecular target: T14, αWT βK24′A GlyR (Homo sapiens, UniProt P23415+P48167, K322A)
T14 construct: expressed in transfected cells; host or cells: HEK293 (ATCC)
Protocol: as §1, §2, §3

[15] = molecular target: T15, αWT βV25′A GlyR (Homo sapiens, UniProt P23415+P48167, V323A)
T15 construct: expressed in transfected cells; host or cells: HEK293 (ATCC)
Protocol: as §1, §2, §3

[16] = molecular target: T16, αWT βWT GlyR (Homo sapiens, UniProt P23415+P48167)
T16 construct: expressed in transfected cells; host or cells: HEK293 (ATCC)
Protocol: as §1, §2, §3

[17] = molecular target: T17, αWT βY27′A GlyR (Homo sapiens, UniProt P23415+P48167, Y325A)
T17 construct: expressed in transfected cells; host or cells: HEK293 (ATCC)
Protocol: as §1, §2, §3

[18] = αK24′A α-βWT, HEK293, with glycine at EC50 of α1 homomer
[19] = αK24′A βWT, HEK293, with glycine at EC50 of α1 homomer
[20] = αR19′A βA19′R, HEK293, with glycine at EC50 of α1 homomer
[21] = αR19′A βWT, HEK293, with glycine at EC50 of α1 homomer
[22] = αV25′A α-βWT, HEK293, with glycine at EC50 of α1 homomer
[23] = αV25′A αB-βWT, HEK293, with glycine at EC50 of α1 homomer
[24] = αV25′A αT-βWT, HEK293, with glycine at EC50 of α1 homomer
[25] = αV25′A βWT, HEK293, with glycine at EC50 of α1 homomer
[26] = αWT α-βK24′A, HEK293, with glycine at EC50 of α1 homomer
[27] = αWT α-βV25′A, HEK293, with glycine at EC50 of α1 homomer
[28] = αWT αB-βWT, HEK293, with glycine at EC50 of α1 homomer
[29] = αWT αT-βV25′A, HEK293, with glycine at EC50 of α1 homomer
[30] = αWT αT-βWT, HEK293, with glycine at EC50 of α1 homomer
[31] = αWT βK24′A, HEK293, with glycine at EC50 of α1 homomer
[32] = αWT βV25′A, HEK293, with glycine at EC50 of α1 homomer
[33] = αWT βWT, HEK293, with glycine at EC50 of α1 homomer
[34] = αWT βY27′A, HEK293, with glycine at EC50 of α1 homomer

T2 sequence (P23415 29-449 isoform P23415-2 K304A limits assumed): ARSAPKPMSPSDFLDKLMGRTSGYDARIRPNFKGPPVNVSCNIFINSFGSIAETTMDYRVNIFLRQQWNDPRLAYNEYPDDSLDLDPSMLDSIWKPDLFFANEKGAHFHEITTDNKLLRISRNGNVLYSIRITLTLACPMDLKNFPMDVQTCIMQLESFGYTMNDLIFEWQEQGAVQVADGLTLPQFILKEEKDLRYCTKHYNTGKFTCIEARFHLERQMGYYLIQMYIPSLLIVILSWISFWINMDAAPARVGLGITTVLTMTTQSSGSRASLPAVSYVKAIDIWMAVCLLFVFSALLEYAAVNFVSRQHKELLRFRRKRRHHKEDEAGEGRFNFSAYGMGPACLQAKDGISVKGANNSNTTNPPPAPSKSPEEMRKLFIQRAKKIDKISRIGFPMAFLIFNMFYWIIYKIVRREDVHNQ
T2 sequence (P48167 23-497): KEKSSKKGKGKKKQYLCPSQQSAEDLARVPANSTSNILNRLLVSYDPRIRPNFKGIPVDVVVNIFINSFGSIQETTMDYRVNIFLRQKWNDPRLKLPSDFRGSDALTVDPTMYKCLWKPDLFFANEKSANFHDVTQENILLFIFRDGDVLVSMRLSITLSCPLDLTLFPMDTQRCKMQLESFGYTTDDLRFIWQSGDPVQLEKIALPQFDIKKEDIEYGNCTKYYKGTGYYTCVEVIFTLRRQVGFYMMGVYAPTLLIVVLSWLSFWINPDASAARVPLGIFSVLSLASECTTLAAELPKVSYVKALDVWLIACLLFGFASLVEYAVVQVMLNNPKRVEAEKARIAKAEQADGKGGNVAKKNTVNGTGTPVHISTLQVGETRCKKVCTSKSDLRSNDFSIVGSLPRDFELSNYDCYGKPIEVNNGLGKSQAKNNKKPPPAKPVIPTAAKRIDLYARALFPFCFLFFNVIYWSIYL
T1 sequence (P23415 29-449 isoform P23415-2 K304A): as the sequence (P23415 29-449 isoform P23415-2 K304A limits assumed) above
T1 sequence (P23415+P48167 fused with the stated changes): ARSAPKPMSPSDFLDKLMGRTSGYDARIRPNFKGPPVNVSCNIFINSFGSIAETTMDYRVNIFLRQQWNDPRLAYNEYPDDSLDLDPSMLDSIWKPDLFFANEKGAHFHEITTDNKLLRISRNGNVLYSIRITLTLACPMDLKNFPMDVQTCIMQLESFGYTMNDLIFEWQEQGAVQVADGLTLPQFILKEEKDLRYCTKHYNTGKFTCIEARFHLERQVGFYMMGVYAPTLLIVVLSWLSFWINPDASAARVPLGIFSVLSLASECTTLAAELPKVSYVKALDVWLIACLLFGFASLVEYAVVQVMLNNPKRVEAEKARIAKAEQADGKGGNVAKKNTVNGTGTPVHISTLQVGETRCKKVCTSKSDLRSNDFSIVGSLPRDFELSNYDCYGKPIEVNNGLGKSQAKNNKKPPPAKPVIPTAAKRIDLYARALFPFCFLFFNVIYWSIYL
T5 sequence (P23415 29-449 isoform P23415-2 V305A): as the sequence (P23415 29-449 isoform P23415-2 K304A limits assumed) above, with A276K, V277A counted along it
T5 sequence (P23415+P48167 fused with the stated changes): as the sequence (P23415+P48167 fused with the stated changes) above
T7 sequence (P23415 29-449 isoform P23415-2 V305A): as the sequence (P23415 29-449 isoform P23415-2 K304A limits assumed) above, with A276K, V277A counted along it
T7 sequence (P48167 23-497 Q95A/S182A/L185M/T188K/L189N/T194V/R196T/K198I/V256I/V258A/I259R/T261H/R263E): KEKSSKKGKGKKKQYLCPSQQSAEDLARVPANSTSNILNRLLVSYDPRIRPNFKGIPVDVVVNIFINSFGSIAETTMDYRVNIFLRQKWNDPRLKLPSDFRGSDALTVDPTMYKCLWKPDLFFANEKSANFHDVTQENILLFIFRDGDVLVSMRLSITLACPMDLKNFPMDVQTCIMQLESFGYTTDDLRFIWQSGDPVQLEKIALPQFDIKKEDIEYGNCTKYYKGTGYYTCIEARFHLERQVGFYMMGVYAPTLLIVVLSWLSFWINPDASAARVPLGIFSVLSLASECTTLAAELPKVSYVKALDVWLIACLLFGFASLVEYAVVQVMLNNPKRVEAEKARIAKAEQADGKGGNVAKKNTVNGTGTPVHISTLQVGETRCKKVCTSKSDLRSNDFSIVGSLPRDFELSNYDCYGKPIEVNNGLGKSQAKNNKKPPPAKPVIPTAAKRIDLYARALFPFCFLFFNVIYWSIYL
T8 sequence (P23415 29-449 isoform P23415-2 V305A limits assumed): as the sequence (P23415 29-449 isoform P23415-2 K304A limits assumed) above, with A276K, V277A counted along it
T8 sequence (P48167 23-497): as the sequence (P48167 23-497) above

`NCC(=O)O` [glycine] gave an Imax [1] of 7.2±0.9 nA, a nH [1] of 1.0±0.1 and an Imax [2] of 6.3±1.1 nA. For the same molecule, the nH [2] was 1.8±0.2, the Imax [3] was 5.5±0.9 nA and the nH [3] was 2.1±0.2. The Imax [4] was 3.9±1.3 nA, the nH [4] was 2.5±0.3 and the Imax [5] was 8.2±1.4 nA. For the same molecule, the nH [5] was 0.92±0.04, the Imax [6] was 5.5±0.9 nA and the nH [6] was 1.1±0.0. The Imax [7] was 6.0±1.7 nA, the nH [7] was 1.4±0.2 and the Imax [8] was 7.4±2.8 nA. For the same molecule, the nH [8] was 1.4±0.2, the Imax [9] was 8.0±1.8 nA and the nH [9] was 1.5±0.2. The Imax [10] was 7.6±1.7 nA, the nH [10] was 1.3±0.1 and the Imax [11] was 8.6±1.6 nA. The nH [11] was 1.8±0.4, the Imax [12] was 14±3.0 nA and the nH [12] was 2.3±0.1. It also gave an Imax [13] of 12.0±1.6 nA, a nH [13] of 2.0±0.1 and an Imax [14] of 5.4±1.0 nA. It also gave a nH [14] of 1.5±0.3, an Imax [15] of 7.7±0.8 nA and a nH [15] of 2.0±0.6. For the same molecule, the Imax [16] was 4.3±1.2 nA, the nH [16] was 2.0±0.4 and the Imax [17] was 8.0±1.3 nA. It also gave a nH [17] of 2.4±0.1.
For picrotoxin [PTX], the “10uM PTX inhibition (%)” value [1, 18] was 4.8±0.7%, the “100uM PTX inhibition (%)” value [1, 18] was 26±5% and the “10uM PTX inhibition (%)” value [2, 19] was 2.2±1.1%. For the same molecule, the “100uM PTX inhibition (%)” value [2, 19] was 20±5%, the “10uM PTX inhibition (%)” value [3, 20] was 4.2±1.7% and the “100uM PTX inhibition (%)” value [3, 20] was 22±8%. The “10uM PTX inhibition (%)” value [4, 21] was 2.8±2.1%, the “100uM PTX inhibition (%)” value [4, 21] was 20±9% and the “10uM PTX inhibition (%)” value [5, 22] was 2.9±0.8%. The “100uM PTX inhibition (%)” value [5, 22] was 21±5%, the “10uM PTX inhibition (%)” value [6, 23] was 4.8±0.6% and the “100uM PTX inhibition (%)” value [6, 23] was 27±2%. For the same molecule, the “10uM PTX inhibition (%)” value [7, 24] was 3.7±1.6%, the “100uM PTX inhibition (%)” value [7, 24] was 25±4% and the “10uM PTX inhibition (%)” value [8, 25] was 4.7±0.7%. For the same molecule, the “100uM PTX inhibition (%)” value [8, 25] was 38±3%, the “10uM PTX inhibition (%)” value [9, 26] was 5.6±1.0% and the “100uM PTX inhibition (%)” value [9, 26] was 35±4%. The “10uM PTX inhibition (%)” value [10, 27] was 3.0±1.3%, the “100uM PTX inhibition (%)” value [10, 27] was 34±4% and the “10uM PTX inhibition (%)” value [11, 28] was 4.8±0.9%. The “100uM PTX inhibition (%)” value [11, 28] was 33±4%, the “10uM PTX inhibition (%)” value [12, 29] was 8.5±1.8% and the “100uM PTX inhibition (%)” value [12, 29] was 36±3%. The “10uM PTX inhibition (%)” value [13, 30] was 3.2±0.6%, the “100uM PTX inhibition (%)” value [13, 30] was 25±6% and the “10uM PTX inhibition (%)” value [14, 31] was 6.0±1.2%. For the same molecule, the “100uM PTX inhibition (%)” value [14, 31] was 35±3%, the “10uM PTX inhibition (%)” value [15, 32] was 5.7±2.2% and the “100uM PTX inhibition (%)” value [15, 32] was 36±7%. For the same molecule, the “10uM PTX inhibition (%)” value [16, 33] was 8.5±1.8%, the “100uM PTX inhibition (%)” value [16, 33] was 33±9% and the “10uM PTX inhibition (%)” value [17, 34] was 6.3±0.3%. The “100uM PTX inhibition (%)” value [17, 34] was 42±2%.
